The nature of data set [1]: Measurement of drug concentrations in the brain after foot-tapping. Format: in vivo. Conditions: male gerbil, 0.1 mg/kg iv, after foot-tapping was finished. Here is the method:
(§1) A male gerbil (Japan SLC) was anesthetized with isoflurane, and 0.1 mg/kg of a test compound was administered from the jugular vein. After four hours. GR73632 (5 pmol/5 μl saline), which is an NK1 receptor agonist, was administered into the cerebral ventricle at the part 1 mm lateral to and 4.5 mm below the bregma in the head, under anesthesia with isoflurane. After the administration, the gerbil was moved to an observation cage, and the foot-tapping period during 30 minutes after the recovery of the righting reflex was measured. The foot-tapping inhibition rate (%) of each test compound was calculated by the following equation. Foot-tapping inhibition rate (%)−{1−(Fool-tapping period when test compound was administered)/(Foot-tapping period when solvent was administered)}×100 (2) Measurement of Drug Concentrations
After foot-tapping was finished, laparotomy was performed immediately under anesthesia with ether, and a blood sample was taken from the abdominal vena cava. At the same lime, the brain was extracted. Through a quantitative analysis using liquid chromatography-mass spectrometry (LC/MS), the concentrations of the test compound in the plasma and the brain were measured.
(§2) In the table, Ex. No. means the Example number. Inhibition (%) is the loot-tapping inhibition rate, and Cone. (nM) is the drug concentration in the brain.

In another data set the target is human NK1 receptor (Homo sapiens (Human), UniProt P25103). Description: Inhibitory effect on human NK1 receptor (substance P-induced increase in intracellular calcium concentration). Format: cell-based. Conditions: substance P 1 μM, compound 0.1 μM; read-out: SPRR (%), Substance P-Response Remaining (intracellular calcium concentration). Here is the method: Inhibitory Effect on Human NK1 Receptor
human NK1 receptor, sequence (P25103 whole entry): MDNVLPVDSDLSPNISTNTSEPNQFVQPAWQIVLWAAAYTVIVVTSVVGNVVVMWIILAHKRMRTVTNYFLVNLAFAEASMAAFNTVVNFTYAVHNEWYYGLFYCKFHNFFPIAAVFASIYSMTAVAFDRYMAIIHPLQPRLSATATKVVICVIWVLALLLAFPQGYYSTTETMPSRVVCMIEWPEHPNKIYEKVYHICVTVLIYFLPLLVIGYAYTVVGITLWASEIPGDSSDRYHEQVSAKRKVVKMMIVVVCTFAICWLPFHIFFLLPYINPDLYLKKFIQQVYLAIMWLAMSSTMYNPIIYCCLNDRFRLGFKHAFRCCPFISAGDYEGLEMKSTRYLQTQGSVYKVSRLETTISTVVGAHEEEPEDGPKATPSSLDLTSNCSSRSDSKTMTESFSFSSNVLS
(1) Preparation of Human NK1 Receptor-Expressing Cells
Human NK1 receptor-expressing cells were prepared by the same methods as those described in 2-3 of Test Example 1.
(2) Study on Inhibitory Effect on Increase in Intracellular Calcium Concentration
The human NK1 receptor-expressing cells were washed with 300 μL/well of a washing solution (20 mM HEPES/Hank's Balanced Salt Solution (HBSS) pH 7.3). A fluorescent calcium indicator (Fluo-4 Direct Calcium Assay Kit, Life Technologies, containing 0.42 mM probenecid and 0.1% bovine serum albumin, prepared according to the protocol of the product) was added to the wells at 150 μL/well, and the plate was incubated at 37° C. for 30 minutes in an incubator. Then. DMSO solutions of a test compound, which were prepared at an 80-time higher concentration using 100% dimethyl sulfoxide (DMSO), were added to the wells at 2.5 μL/well (final concentrations of 0.1, 1 and 10 μM), and the solutions were mixed. Then, the plate was further incubated at […] for 30 minutes in an incubator. After 30 minutes, the intracellular calcium concentrations were measured immediately.
The intracellular calcium concentrations were each measured as a fluorescent signal using FDSS (registered trademark) 7000 (Hamamatsu Photonics). A substance P (Peptide Institute. Inc.) solution which was prepared at 0.4 μM or 4 μM using an assay buffer (20 mM HEPES/Hank's Balanced Salt Solution (HBSS) pH 7.3, containing 0.1% bovine serum albumin) was added automatically to each well at 50 μL/well (final concentration of 0.1 or 1 μM) 10 seconds after starting reading, and the fluorescent signal was measured up to 120 seconds.
The intracellular calcium concentration (%) of the cells to which a test compound was added was calculated by the equation below, where the fluorescent signal of the group to which the vehicle (DMSO) was added was regarded as 100%, and the fluorescent signal before the addition of substance P was regarded as 0%. Intracellular calcium concentration (%)—(Fluorescent signal of test compound addition group)/(Fluorescent signal of vehicle addition group)×100
The intracellular calcium concentration (%) calculated was regarded as the remaining agonist activity of substance P (Substance P-Response Remaining: SPRR). In the table, Ex. No. means the Example number. SPRR (%) is the value obtained when the concentration of substance P was 1 μM and the concentration of the compound was 0.1 μM.
(In general: Calcium assays in cells follow changes in intracellular calcium, usually with a dye or a luminescent sensor.)

In a further data set the target is NK1 receptor (Meriones unguiculatus (Mongolian jird) (Gerbillus unguiculatus), UniProt Q5DUB1). Put plainly: Effect on foot-tapping induced by NK1 receptor agonist GR73632. The format is in vivo. Conditions: male gerbil, 0.1 mg/kg iv, GR73632 after four hours. Here is the method:
(1) Effect on Foot-Tapping
The test compound solution was prepared by dissolving the test compound in a vehicle (a mixture of 50% N,N-dimethylacetamide (Wako Pure Chemical Industries), 30% propylene glycol (Wako Pure Chemical Industries). 4% 2-hydroxypropyl-β-cyclodextrin (Wako Pure Chemical Industries) and 16% distilled water).
as §1, §2

A further data set addresses human CYP3A4 (Homo sapiens (Human), UniProt P08684). Description: Inhibitory effect on CYP3A4. The format is in vitro ADME. Conditions: 30-minute pre-incubation, Luciferin-IPA substrate; read-out: IC50 (μM), CYP3A4 inhibition. Here is the method:
Inhibitory Effect on CYP3A4
Enzyme reaction was performed by incubating in a potassium phosphate buffer solution (pH 7.4) containing 1 nM to 20 μM test compound, 3.2 mM magnesium chloride, 0.2 pmol human CYP3A4 (BD Biosciences), 0.5 mM reduced nicotinamide adenine dinucleotide phosphate (NADPH) and 3 μM Luciferin-IPA (Promega) at 37° C. for 10 minutes. The volume of the reaction solution was 50 μL/well. The 30-minute pre-incubation group was incubated at 37° C. for 30 minutes before adding tire substrate, the Luciferin-IPA solution (12.5 μL/well). At the end of the enzyme reaction, 50 μL/well of a Luciferin detection reagent (Promega) was added to the wells, and the plate was left at room temperature for 20 minutes. Then, the emission intensities were measured with Infinite M1000 (TECAN). The enzyme activities (%) relative to the value of the group to which the test compound was not added were calculated.

Eleven molecules from patent US10011568B2, “Cyclohexyl pyridine derivative” (priority 2014, dated 2018) can be followed below.

Each structure is given as a SMILES string.

NK1 receptor, sequence (Q5DUB1 whole entry): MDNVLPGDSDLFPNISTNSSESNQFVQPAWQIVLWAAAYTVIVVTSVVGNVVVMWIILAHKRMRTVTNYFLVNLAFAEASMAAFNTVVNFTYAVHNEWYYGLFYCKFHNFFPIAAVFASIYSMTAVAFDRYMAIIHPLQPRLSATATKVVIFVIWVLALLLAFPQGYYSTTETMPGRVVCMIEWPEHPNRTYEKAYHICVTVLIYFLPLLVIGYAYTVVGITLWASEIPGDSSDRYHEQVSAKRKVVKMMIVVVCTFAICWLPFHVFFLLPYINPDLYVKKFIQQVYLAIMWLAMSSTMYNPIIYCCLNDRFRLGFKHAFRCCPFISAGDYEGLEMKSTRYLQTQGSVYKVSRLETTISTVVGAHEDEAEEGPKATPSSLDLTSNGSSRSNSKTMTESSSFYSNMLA
human CYP3A4, sequence (P08684 whole entry): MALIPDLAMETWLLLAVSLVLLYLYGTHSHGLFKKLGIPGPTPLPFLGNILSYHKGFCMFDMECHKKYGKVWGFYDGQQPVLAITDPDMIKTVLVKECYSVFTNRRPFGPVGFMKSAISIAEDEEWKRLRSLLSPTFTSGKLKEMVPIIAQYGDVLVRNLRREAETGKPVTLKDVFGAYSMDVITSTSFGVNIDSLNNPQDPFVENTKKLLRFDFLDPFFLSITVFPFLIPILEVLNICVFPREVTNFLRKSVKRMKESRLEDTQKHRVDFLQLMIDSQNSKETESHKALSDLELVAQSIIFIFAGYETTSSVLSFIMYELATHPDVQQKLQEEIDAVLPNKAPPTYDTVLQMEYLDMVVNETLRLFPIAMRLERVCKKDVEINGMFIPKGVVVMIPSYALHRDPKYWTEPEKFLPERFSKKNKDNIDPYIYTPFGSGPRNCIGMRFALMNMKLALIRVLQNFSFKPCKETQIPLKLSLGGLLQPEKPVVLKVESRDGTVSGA

In the case of `Cc1cc(F)ccc1-c1cc(C2(C)CCCC(CC(=O)O)C2)ncc1N(C)C(=O)C(C)(C)c1cc(C(F)(F)F)cc(C(F)(F)F)c1` (centres unmarked) [Example 4, {3-[5-{[2-(3,5-Bistrifluoromethylphenyl)-2-methylpropionyl]methylamino}-4-(4-fluoro-2-methylphenyl)pyridin-2-yl]-3-methylcyclohexyl}acetic Acid], the “Conc. (nM), drug concentration in the brain” value (from here on “Conc. (nM), drug concentration”) in data set [1] came out at 35 nM. Further, the remaining activity at 0.1 µM on human NK1 receptor worked out at 57%. Further, the “Inhibition (%), foot-tapping inhibition rate” value (shortened to “Inhibition (%)”) at NK1 receptor came out at 77%. On human CYP3A4, the half-maximal inhibitory concentration (IC50) (usually the concentration that gives 50% inhibition) worked out at 7.1 µM.
In the same order, the values of `Cc1cc(F)ccc1-c1cc(C2CCC(C(C)C(=O)O)CC2)ncc1N(C)C(=O)C(C)(C)c1cc(C(F)(F)F)cc(C(F)(F)F)c1` (centres unmarked) [Example 10, 2-{4-[5-{[2-(3,5-Bistrifluoromethylphenyl)-2-methylpropionyl]methylamino}-4-(4-fluoro-2-methylphenyl)pyridin-2-yl]cyclohexyl}propionic Acid] are 42 nM, 8.6%, 97% and 11 µM.
In the same order, the values of `Cc1cc(F)ccc1-c1cc([C@H]2CC[C@H](CC(=O)O)CC2)ncc1N(C)C(=O)C(C)(C)c1cc(C(F)(F)F)cc(C(F)(F)F)c1` [Example 13, trans-{4-[5-{[2-(3,5-Bistrifluoromethylphenyl)-2-methylpropionyl]methylamino}-4-(4-fluoro-2-methylphenyl)pyridin-2-yl]cyclohexyl}acetic acid] are 51 nM, 5.1%, 100% and 8.2 µM.
For `Cc1cc(F)ccc1-c1cc(C2CCC(C(=O)O)CC2)ncc1N(C)C(=O)C(C)(C)c1cc(C(F)(F)F)cc(C(F)(F)F)c1` (centres unmarked) [Example 1, 4-[5-{[2-(3,5-Bistrifluoromethylphenyl)-2-methylpropionyl]methylamino}-4-(4-fluoro-2-methylphenyl)pyridin-2-yl]cyclohexanecarboxylic Acid] the same measures were 24 nM, 20%, 98% and 13 µM.
As to `Cc1cc(F)ccc1-c1cc([C@H]2CC[C@H](C(C)(C)C(=O)O)CC2)ncc1N(C)C(=O)C(C)(C)c1cc(C(F)(F)F)cc(C(F)(F)F)c1` [Example 11, trans-2-{4-[5-{[2-(3,5-Bistrifluoromethylphenyl)-2-methylpropionyl]methylamino}-4-(4-fluoro-2-methylphenyl)pyridin-2-yl]cyclohexyl}-2-methylpropionic Acid], in data set [1], the “Conc. (nM), drug concentration” value turned out to be 72 nM. Besides, the remaining activity at 0.1 µM on human NK1 receptor turned out to be 5.4%. Besides, the “Inhibition (%)” value at NK1 receptor is on record as 95%. Further, the IC50 at human CYP3A4 stood at 2.7 µM.
Consider `Cc1cc(F)ccc1-c1cc(C2CCC(CC(=O)O)CC2)nc(C#N)c1N(C)C(=O)C(C)(C)c1cc(C(F)(F)F)cc(C(F)(F)F)c1` (centres unmarked) [Example 8, {4-[5-{[2-(3,5-Bistrifluoromethylphenyl)-2-methylpropionyl]methylamino}-6-cyano-4-(4-fluoro-2-methylphenyl)pyridin-2-yl]cyclohexyl}acetic Acid], for which, in data set [1], the “Conc. (nM), drug concentration” value was 59 nM. Besides, at human NK1 receptor, the remaining activity at 0.1 µM came out at 31%. Besides, the “Inhibition (%)” value on NK1 receptor turned out to be 100%. The IC50 at human CYP3A4 amounted to 6.1 µM.
For `Cc1cc(F)ccc1-c1cc([C@H]2CC[C@H](CC(=O)O)CC2)nc(C#N)c1N(C)C(=O)C(C)(C)c1cc(C(F)(F)F)cc(C(F)(F)F)c1` [Example 20, trans-{4-[5-{[2-(3,5-Bistrifluoromethylphenyl)-2-methylpropionyl]methylamino}-6-cyano--4-(4-fluoro-2-methylphenyl)-pyridin-2-yl]cyclohexyl}acetic acid] the same measures were 92 nM, 2.8%, 100% and 5.5 µM.
In the same order, the values of `Cc1cc(F)ccc1-c1cc([C@H]2CC[C@@H](CC(=O)O)CC2)ncc1N(C)C(=O)C(C)(C)c1cc(C(F)(F)F)cc(C(F)(F)F)c1` [Example 14, cis-{4-[5-{[2-(3,5-bistrifluoromethylphenyl)-2-methylpropionyl]methylamino}-4-(4-fluoro-2-methylphenyl)pyridin-2-yl]cyclohexyl}acetic acid] are 40 nM, 22%, 99% and 7.5 µM.
In the same order, the values of `Cc1ccccc1-c1cc(C2CCC(CC(=O)O)CC2)nc(C#N)c1N(C)C(=O)C(C)(C)c1cc(C(F)(F)F)cc(C(F)(F)F)c1` (centres unmarked) [Example 16, [4-(5-{[2-(3,5-Bistrifluoromethylphenyl)-2-methylpropionyl]methylamino}-6-cyano-4-ortho-tolylpyridin-2-yl)cyclohexyl]acetic Acid] are 64 nM, 37%, 93% and 3.1 µM.
Turning to `Cc1cc(F)ccc1-c1cc([C@H]2CC[C@@H](CC(=O)O)CC2)nc(C#N)c1N(C)C(=O)C(C)(C)c1cc(C(F)(F)F)cc(C(F)(F)F)c1` [Example 21, cis-{4-[5-{[2-(3,5-bistrifluoromethylphenyl)-2-methylpropionyl]methylamino}-6-cyano-4-(4-fluoro-2-methylphenyl)pyridin-2-yl]cyclohexyl}acetic acid], the “Conc. (nM), drug concentration” value in data set [1] is on record as 92 nM. Besides, the remaining activity at 0.1 µM at human NK1 receptor was 36%. Further, the “Inhibition (%)” value at NK1 receptor is 100%. Also, the IC50 at human CYP3A4 was 4.2 µM.
In the same order, the values of `Cc1cc(F)ccc1-c1cc(C2CCC3(CC2)CC3C(=O)O)ncc1N(C)C(=O)C(C)(C)c1cc(C(F)(F)F)cc(C(F)(F)F)c1` (centres unmarked) [Example 7, 6-[5-{[2-(3,5-Bistrifluoromethylphenyl)-2-methylpropionyl]methylamino}-4-(4-fluoro-2-methylphenyl)pyridin-2-yl]spiro[2.5]octane-1-carboxylic Acid] are 24 nM, 9.4%, 90% and 11 µM.
